Patent US10426757B2, “Compositions and methods for promoting intestinal stem cell and/or non-stem progenitor cell function” (Whitehead Institute for Biomedical Research, priority 2014, dated 2019)
“Also recorded” adds a separate entry of the source.

Columns and labels:
Type in all cases: in vivo, mouse
[1] = system: crypt base columnar cells and transit-amplifying cells; experiment: BrdU incorporation into ISCs and TA-cells; conditions: GW501516-treated mice, 4 hours after BrdU pulse
Method: Mice were housed in the Unit for Laboratory Animal Medicine at the Whitehead Institute for Biomedical Research and Koch Institute for Integrative Cancer Research. Lgr5-EGFP-IRES-CreERT2 mice (strain name: […] B6.129S4-Gt(ROSA)26Sor^tm1Sor/J, stock number 003474) were obtained from the Jackson Laboratory. […] Control mice were age-matched and fed normal chow ad libitum. GW501516 (Enzo) was reconstituted in DMSO at 4.5 mg ml^-1 and diluted 1:10 in a solution of 5% PEG400 (Hampton Research), 5% Tween80 (Sigma), 90% H2O for a daily intraperitoneal injection of 4 mg/kg. Apc exon 14 was excised by tamoxifen suspended in sunflower seed oil (Spectrum […]) at a concentration of 10 mg ml^-1, and 250 μl per 25 g of body weight was administered by intraperitoneal injection to mice twice over 4 days before harvesting tissue. BrdU was prepared at 10 mg ml^-1 in PBS, passed through 0.22 μm filter and injected at 100 mg kg^-1. As previously described^5, tissues were fixed in 10% formalin, paraffin embedded and sectioned. Antigen retrieval was performed with Borg Decloaker RTU solution (Biocare Medical) in a pressurized Decloaking Chamber (Biocare Medical) for 3 minutes. […]

[2] = system: Apc-null Lgr5-GFP^hi ISCs and Lgr5-GFP^low progenitors; experiment: Orthotopic transplantation of Apc-null cells into recipient colons; conditions: 10,000 cells from GW501516-treated mice; for adenoma initiation by transplanted Apc-null Lgr5-GFP^low progenitors: vehicle 0±0
Excerpt: To test this possibility, the present inventors generated Apc^loxp/loxp; Lgr5-EGFP-IRES-CreERT2 mice to assess whether pharmacological PPAR-δ activation modifies the tumorigenic capacity of the Lgr5-GFP^low progenitors. Injection with tamoxifen leads to Apc-loss in the Lgr5-GFP^hi ISCs, which in turn generate Apc-null Lgr5-GFP^low progenitors. Four days after tamoxifen administration, we flow sorted Apc-null Lgr5-GFP^hi ISCs and Lgr5-GFP^low progenitors from vehicle and PPAR-δ agonist treated mice to assess the tumor-forming potential of these populations using separate assays (FIG. 7B): first, we examined their ability to give rise to adenomatous organoids in culture; and second, we interrogated the ability of 10,000 freshly sorted stem and progenitor cells to initiate adenomatous lesions in syngeneic recipient colons.
Apc^loxp/loxp; Lgr5-EGFP-IRES-CreERT2 mice were treated with vehicle or GW501516 for one month, and then injected with two doses of tamoxifen I.P. Four days later, Apc-null Lgr5-GFP^hi ISCs and Lgr5-GFP^low progenitors were sorted by flow cytometry, as described above. For primary cell transplantations, 10,000 Apc-null Lgr5-GFP^hi ISCs and Lgr5-GFP^low progenitors were resuspended into 90% crypt culture media (as described) and 10% Matrigel™, then transplanted into the colonic lamina propria of C57BL/6 recipient mice by optical colonoscopy using an injection needle (Hamilton Inc., part number 7750-21, 30 gauge, Kel-F Hub NDL, 14 inches length, 45 degree bevel) and specialized syringe (Hamilton Inc, part number 81242, 500 μL, Model 1750 LT Threaded Plunger). Optical colonoscopy was performed using a Karl Storz Image 1 HD Camera System, Image 1 HUB CCU, 175 Watt Xenon Light Source, and Richard Wolf 1.9 mm/9.5 Fr Integrated Telescope (part number 8626.431). Four injections were performed per mouse. Mice then underwent colonoscopy four weeks later to assess tumor formation. Colonoscopy videos and images were saved for offline analysis. […]

[3] = system: aged crypts; experiment: Stem cell frequency and organoid formation in aged mice
Method: Isolated ISCs or progenitor cells were centrifuged for 5 minutes at 250 g, re-suspended in the appropriate volume of crypt culture medium (500-1,000 cells μl^−1), then seeded onto 25-30 μl Matrigel™ (Corning 356231 growth factor reduced) containing 1 μM jagged (Ana-Spec) in a flat bottom 48-well plate (Corning 3548). Alternatively, ISCs and Paneth cells were mixed after sorting in a 1:1 ratio, centrifuged, and then seeded onto Matrigel™. The Matrigel™ and cells were allowed to solidify before adding 300 μl of crypt culture medium. The crypt media was changed every second or third day. Organoid bodies were quantified on days 3, 7 and 10 of culture, unless otherwise specified. With respect to the study results presented in FIGS. 14-16, organoid bodies were quantified on day 3-4. In secondary experiments, individual primary organoids were mechanically dissociated and re-plated, or organoids were dissociated for 10 minutes in TrypLE Express at 32° C., re-suspended with SMEM (Life Technologies), centrifuged and re-suspended in cold SMEM with viability dye 7-AAD. Live cells were sorted and seeded onto Matrigel™ as previously described. With respect to the study results presented in FIGS. 14-16, young mice were 2-4 months old. Old mice range from 18-25 months of age. The mice were on a standard chow diet. Mice received a single daily injection with the indicated amount of GW501516 or vehicle in the afternoon. Intestines were harvested the following morning.

SMILES: Cc1cc(SCc2sc(-c3ccc(C(F)(F)F)cc3)nc2C)ccc1OCC(=O)O [GW501516, 2-[2-methyl-4-[[4-methyl-2-[4-(trifluoromethyl)phenyl]-1,3-thiazol-5-yl]methylsulfanyl]phenoxy]acetic acid]
- proliferation of CBC cells and transit-amplifying cells [1]: augmented; also recorded: enhanced the proliferation
- adenoma initiation by transplanted Apc-null Lgr5-GFP^low progenitors [2]: initiated tumors
- adenoma initiation by transplanted Apc-null Lgr5-GFP^low progenitors ([2]; listed as PPAR-δ agonist): 0.58±0.16
- intestinal adenoma formation by transplanted Apc-null Lgr5-GFP^hi ISCs ([2]; vehicle 0.67±0.13, listed as PPAR-δ agonist): 0.61±0.19
- organoid formation of co-cultured ISCs and Paneth cells from aged animals ([3]; GW501516 vs old vehicle, day 3): significantly boosts organoid formation
- frequency of organoid formation in aged crypts ([3]; aged mice, GW501516 treatment): increases the frequency of organoid formation
- frequency of stem cells ([3]; aged mice, GW501516 treatment): increases the frequency of stem cells
